Patent US8106055B2, “Substituted amide compounds” (Gruenenthal GmbH, priority 2007, dated 2012)

How the values were obtained:
[1] = molecular target: T1, bradykinin 1 receptor (B1R) of the rat (Rattus norvegicus, UniProt P97583); test: Functional investigation on the rat bradykinin 1 receptor (B1R), Ca2+ FLIPR assay in CHO K1 rB1R cells; format: cell-based; conditions: B1R antagonism rat; test substance 10 μM; Ca2+ FLIPR, CHO K1 rB1R cells
T1 construct: expressed in transfected cells; host or cells: CHO K1 cells
T1 sequence (P97583 1-337): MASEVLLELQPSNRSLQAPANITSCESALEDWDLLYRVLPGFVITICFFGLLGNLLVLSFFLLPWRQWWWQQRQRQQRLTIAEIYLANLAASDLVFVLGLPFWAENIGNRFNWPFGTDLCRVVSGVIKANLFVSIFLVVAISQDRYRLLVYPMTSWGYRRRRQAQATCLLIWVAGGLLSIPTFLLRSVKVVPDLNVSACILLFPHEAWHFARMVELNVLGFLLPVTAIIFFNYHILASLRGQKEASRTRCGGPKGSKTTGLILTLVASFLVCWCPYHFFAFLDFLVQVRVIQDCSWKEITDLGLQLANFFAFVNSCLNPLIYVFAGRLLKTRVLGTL
Procedure, shortened: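 Peak Ca2+-dependent fluorescence in B1R-transfected CHO K1 cells measures antagonism of an EC80 agonist challenge given 10-20 min after compound. Agonist is Lys-Des-Arg9-bradykinin for human, Des-Arg9-bradykinin for rat receptor.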

[2] = molecular target: T2, serotonin (5-HT) reuptake (Rattus norvegicus, UniProt P31652); test: Inhibition of serotonin (5HT) reuptake in synaptosomes from rat brain; format: biochemical; conditions: for 5-HT (inhibition of reuptake of serotonin, % inhibition): test concentration of 10 μM; for 5-HT reuptake: Table 2, test concentration 10 μM
T2 construct: synaptosomes are freshly isolated from areas of the rat brain; from tissue; host or cells: rat brain synaptosomes (P2 fraction)
Procedure, shortened: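 Compounds screened at 10 μM and reported as percent inhibition of serotonin uptake. Uptake measured in a freshly prepared P2 synaptosomal fraction from rat brain.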

T2 sequence (P31652 whole entry): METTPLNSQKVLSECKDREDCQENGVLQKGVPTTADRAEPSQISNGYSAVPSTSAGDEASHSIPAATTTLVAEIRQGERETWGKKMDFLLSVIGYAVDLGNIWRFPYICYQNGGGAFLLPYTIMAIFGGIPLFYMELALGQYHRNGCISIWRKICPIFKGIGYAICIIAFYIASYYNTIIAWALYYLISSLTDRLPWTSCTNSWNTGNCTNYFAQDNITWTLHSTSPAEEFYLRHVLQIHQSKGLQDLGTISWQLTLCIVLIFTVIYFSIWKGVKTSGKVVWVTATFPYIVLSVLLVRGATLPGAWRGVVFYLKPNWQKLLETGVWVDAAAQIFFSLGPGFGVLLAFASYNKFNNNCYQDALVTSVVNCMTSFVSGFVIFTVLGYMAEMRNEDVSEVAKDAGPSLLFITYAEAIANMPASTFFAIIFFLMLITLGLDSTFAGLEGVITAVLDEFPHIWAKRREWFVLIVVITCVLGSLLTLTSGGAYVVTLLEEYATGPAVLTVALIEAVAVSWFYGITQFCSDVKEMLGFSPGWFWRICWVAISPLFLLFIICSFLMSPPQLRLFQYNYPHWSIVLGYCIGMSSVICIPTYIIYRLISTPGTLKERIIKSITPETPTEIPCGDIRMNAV

| SMILES | B1R Ant. r [10 μM] % Inhibition [1] [%] | 5-HT (inhibition of reuptake of serotonin, % inhibition) [2] [%] | 5-HT reuptake [2] [% inhibition] |
| --- | --- | --- | --- |
| CN(C)C(c1cccc(F)c1)C1CCC(CNC(=O)COCC2CCCN(S(=O)(=O)c3ccccc3)C2)CC1 (stereo not shown) [Example 220] | 7 | 95 | – |
| Cc1ccc(S(=O)(=O)N(C)CCOCC(=O)NC2CCC(C(c3cccs3)N(C)C)CC2)cc1 (stereo not shown) [Example 168, N-(4-((dimethylamino) (thiophen-2-yl)methyl)cyclohexyl)-2-(2-(N,4-dimethylphenylsulfamido)ethoxy)acetamide] | 16 | 85 | – |
| CN(C)C(c1ccccc1)C1CCC(NC(=O)COCC2CCCN2S(=O)(=O)c2c(Cl)cc(Cl)cc2Cl)CC1 (stereo not shown) [Example 611, N-[4-(Dimethylaminophenylmethyl)-cyclohexyl]-2-[1-(2,4,6-trichlorobenzenesulfonyl)-pyrrolidin-2-ylmethoxy]-acetamide] | 68 | – | 84 |
| CN(C)C(c1cccc(F)c1)C1CCC(CCNC(=O)COCCN(C)S(=O)(=O)c2ccc(F)cc2)CC1 (stereo not shown) [Example 218] | 28 | 101 | – |
| COc1ccc(S(=O)(=O)N2Cc3ccccc3CC2COCC(=O)NC2CCC(C(c3ccc(F)cc3)N(C)C)CC2)cc1 (stereo not shown) [Example 234] | 20 | 95 | – |
| Cc1ccc(S(=O)(=O)N(C)CCOCC(=O)NCC2CCC(C(c3cccc(F)c3)N(C)C)CC2)cc1 (stereo not shown) [Example 227] | 12 | 86 | – |
| COc1ccc(S(=O)(=O)N2CCCCC2CCOCC(=O)NCCC2CCC(C(c3cccc(F)c3)N(C)C)CC2)cc1 (stereo not shown) [Example 213] | 49 | 98 | – |
| COc1cc(C)c(S(=O)(=O)N2CCC(OCC(=O)NCC3CCC(C(c4cccc(F)c4)N(C)C)CC3)C2)c(C)c1 (stereo not shown) [Example 265] | 97 | 95 | – |
| CN(C)C(c1ccccc1)C1CCC(NC(=O)COCC2CCCN2S(=O)(=O)c2c(Cl)cc(Cl)cc2Cl)CC1 (stereo not shown) [Example 612, N-[4-(Dimethylaminophenylmethyl)-cyclohexyl]-2-[1-(2,4,6-trichlorobenzenesulfonyl)-pyrrolidin-2-ylmethoxy]-acetamide] | 64 | – | 84 |
| CN(C)C(c1ccc(Cl)cc1)C1CCC(CCNC(=O)COCCN(C)S(=O)(=O)c2c(Cl)cccc2Cl)CC1 (stereo not shown) [Example 274] | 61 | 81 | – |
| COc1cc(C)c(S(=O)(=O)N2CCCC(OCC(=O)NCCC3CCC(C(c4cccc(F)c4)N(C)C)CC3)C2)c(C)c1C (stereo not shown) [Example 221] | 17 | 95 | – |
| CCN(CCOCC(=O)NCCC1CCC(C(c2cccc(F)c2)N(C)C)CC1)S(=O)(=O)c1c(C)cc(OC)c(C)c1C (stereo not shown) [Example 209] | 60 | 94 | – |
| CN(C)C(c1cccc(F)c1)C1CCC(NC(=O)COC2CCN(S(=O)(=O)c3ccccc3)C2)CC1 (stereo not shown) [Example 271] | −13 | 93 | – |
| COc1ccc(S(=O)(=O)N2CCCCC2COCC(=O)NC2CCC(C(c3cccc(F)c3)N(C)C)CC2)cc1 (stereo not shown) [Example 255] | 47 | 91 | – |
| CN(C)C(c1cccc(F)c1)C1CCC(NC(=O)COCCN(C)S(=O)(=O)c2ccc(Cl)cc2Cl)CC1 (stereo not shown) [Example 217] | 47 | 85 | – |
| CN(C)C(c1ccc(Cl)cc1)C1CCC(CCNC(=O)COCCN(C)S(=O)(=O)c2ccc(F)cc2)CC1 (stereo not shown) [Example 241] | 8 | 102 | – |
| COc1ccc(S(=O)(=O)N2CCCCC2COCC(=O)NC2CCC(C(c3cccs3)N(C)C)CC2)cc1OC (stereo not shown) [Example 261] | −3 | 85 | – |
